Laboratory results as given in patent publication US11672792B2, “Topical formulations comprising montelukast and combinations with mussel adhesive proteins” (ENLITISA (SHANGHAI) PHARMACEUTICAL CO., LTD, priority 2017, dated 2023).

Key:
[1] = system: carrageenan-induced acute inflammation in subcutaneous air pouch; experiment: Air Pouch Model I (Example 1); type: in vivo, C57BL/6 mice; design: Activity score / Edema Score / Sum (of histology scores) / Fibroplastic proliferation score / Inflammation score: scale not given here; settings: MAP 1.5 mg, Mon 200 μg; for Exudate volume / Pouch Wall Weight / Leukocyte count in exudate / Lymphocyte count in exudate / Monocyte count in exudate / Neutrophil count in exudate: doses/mouse: dexamethasone 200 μg; for Exudate volume / Pouch Wall Weight: 24 h after carrageenan
Procedure: Healthy adult male C57BL/6 mice weighing between 20 and 30 g were supplied by Changzhou Cvens Experimental Animal Co. Ltd (Changzhou, Jiangsu Province, China). Prior to any experiments being conducted, mice were housed under standardized conditions (at a constant temperature or 22 t 2° C., with alternating 12 hour periods of light and darkness), and were fed on a standard mouse diet with water, for about a week.
General anesthesia was induced using intraperitoneal 3% chloral hydrate (Sinopharm Chemical Reagent Co., Ltd., Shanghai, China); 1 mL/10 g of body weight). The hair of the entire dorsum was shaved and depilated 1 day before sterile air injection.
Air pouches were produced by subcutaneous injection of sterile air (5 mL) into the intrascapular area of the mice. After three days, another injection of air (3 mL) was performed to maintain the pouches. In order to induce acute inflammation, three days after this final injection, animals received an injection of sterile carrageenan solution (CP Kelco, Taixing, Jiangsu Province, China; 1%, 0.5 mL; produced by adding 0.1 g of carrageenan powder into a beaker containing 10 mL of 0.9% saline solution and stirring). Mice were pre-treated with test samples or vehicle 1 hour before and 23 hours after the carrageenan injection into the subcutaneous air pouch. Animals were sacrificed 24 hours after the carrageenan injection.
Skin biopsies were taken from the air pouches. A part of the biopsy was fixed in formalin (produced by adding ultra pure water to 50 mL of a 40% formaldehyde solution (Nanchang Rain Dew Experimental Equipment Co., Ltd., Nanchang, […] Provence, China) up to a total volume of 500 mL) and analyzed by histological embedding in paraffin wax, sectioning and staining.
The cavity was washed with 4 mL of sterile phosphate buffer solution (pH 7.4; prepared by dissolving 4 g of NaCl, 0.1 g of KCl, 1.749 g of Na2HPO4.12H2O and 0.1 g of KH2PO4 in ultrapure water, adjusting the pH to 7.4 with HCl and diluting with water to a total volume of 500 mL).
Exudates were collected and volumes were quantified. The total number of cells was determined with a haematocytometer (ADVIA 2120 Hematology System, Siemens Healthineers).
In Table 1, MAP is a Mefp-1 solution, which is was prepared as follows. Blue mussels were harvested in the coastal area of Shandong Province, China. Mussel feet were collected, cut into small pieces and homogenized in an extraction buffer comprising 5% acetic acid in 4 mol/L of aqueous urea. The crude extracts were collected after centrifuging and then purified by liquid chromatography. […] The solutions that were employed below were prepared by adding saline solution to this semi-finished product to obtain a concentration as described in Table 1.

[2] = system: carrageenan-induced acute inflammation in subcutaneous air pouch; experiment: Air Pouch Model II (Example 2); type: in vivo, mice; design: Fibroplastic proliferation score / Inflammation score / Activity score / Edema Score / Sum (of histology scores): scale not given here; settings: Dex 400 μg, Dopamine 2 mg, MAP 250 μg, Mon 100 μg
Procedure: In Table 6, “Dex” is an abbreviation for dexamethasone and “Dopamine” is a 4 mg/mL aqueous solution of dopamine hydrochloride (Shanghai Aladdin Bio-Chem Technology Co., Ltd., Shanghai, China).
The histological specimens were analysed and an inflammation score, an activity score and a fibroplastic proliferation score were estimated as in Example 1 above and are tabulated in Table 9 below.

[3] = system: carrageenan-induced acute inflammation in subcutaneous air pouch; experiment: Air Pouch Model: Combination of Montelukast (Example 5); type: in vivo, mice; settings: MAP 1.5 mg, Mon 200 μg; for Exudate volume / Pouch Wall Weight: doses/mouse: dexamethasone 200 μg
[4] = system: carrageenan-induced acute inflammation in subcutaneous air pouch; experiment: Air Pouch Model: Topical Administration Versus Oral Administration (Example 4); settings: 200 μg/mouse, Mon-O intragastric; for Exudate volume / Pouch Wall Weight: others injected into pouch
[5] = dexamethasone 200 μg, listed as Mon (oral)
[6] = dexamethasone 200 μg, listed as Mon (topical)
[7] = pouch wall histology, dexamethasone 200 μg, listed as Mon (oral)
[8] = pouch wall histology, dexamethasone 200 μg, listed as Mon (topical)
[9] = dexamethasone 200 μg, listed as MON-O
[10] = others into pouch, listed as Mon-O
[11] = others into pouch, listed as Mon-T

SMILES: CC(C)(O)c1ccccc1CC[C@@H](SCC1(CC(=O)O)CC1)c1cccc(/C=C/c2ccc3ccc(Cl)cc3n2)c1 [Mon, Montelukast sodium]
- IFN-γ in exudate (ELISA) [1, 5]: 2495 ± 711
- IL-6 in exudate (ELISA) [1, 5]: 8453 ± 9758
- IL-10 in exudate (ELISA) [1, 5]: 52.59 ± 7.22
- TNF-α in exudate (ELISA) [1, 5]: 39.41 ± 17.62
- IFN-γ in exudate (ELISA) [1, 6]: 1690 ± 725
- IL-6 in exudate (ELISA) [1, 6]: 2528 ± 1538
- IL-10 in exudate (ELISA) [1, 6]: 68.18 ± 15.81
- TNF-α in exudate (ELISA) [1, 6]: 90.73 ± 109.02
- Exudate volume ([1]; listed as Mon (oral)): 3.58 ± 0.15 mL
- Pouch Wall Weight ([1]; listed as Mon (oral)): 0.67 ± 0.10 g
- Exudate volume ([1]; listed as Mon (topical)): 3.68 ± 0.15 mL
- Pouch Wall Weight ([1]; listed as Mon (topical)): 0.66 ± 0.13 g
- Leukocyte count in exudate ([1]; listed as Mon (oral)): 2.38e+08 mL⁻¹
- Lymphocyte count in exudate ([1]; listed as Mon (oral)): 1.98e+08 mL⁻¹
- Monocyte count in exudate ([1]; listed as Mon (oral)): 7e+06 mL⁻¹
- Neutrophil count in exudate ([1]; listed as Mon (oral)): 2.1e+07 mL⁻¹
- Leukocyte count in exudate ([1]; listed as Mon (topical)): 3.82e+08 mL⁻¹
- Lymphocyte count in exudate ([1]; listed as Mon (topical)): 3.22e+08 mL⁻¹
- Monocyte count in exudate ([1]; listed as Mon (topical)): 1.7e+07 mL⁻¹
- Neutrophil count in exudate ([1]; listed as Mon (topical)): 2.9e+07 mL⁻¹
- Activity score ([1]; pouch wall histology, dexamethasone 200 μg): 1.00
- Edema Score [1, 7]: 1.00
- Fibroplastic proliferation score [1, 7]: 0.33
- Sum (of histology scores) [1, 7]: 4.17
- Fibroplastic proliferation score [1, 8]: 0.83
- Inflammation score [1, 8]: 2.17
- Sum (of histology scores) [1, 8]: 5.50
- Fibroplastic proliferation score [2]: 0.00
- Activity score ([3]; dexamethasone 200 μg): 1.00
- Fibroblast proliferation score ([3]; dexamethasone 200 μg): 0.83
- Inflammation score ([3]; dexamethasone 200 μg): 2.17
- Leukocyte count in exudate ([3]; dexamethasone 200 μg): 3.82e+06 mL⁻¹
- Lymphocyte count in exudate ([3]; dexamethasone 200 μg): 3.22e+06 mL⁻¹
- Monocyte count in exudate ([3]; dexamethasone 200 μg): 170000 mL⁻¹
- Neutrophil count in exudate ([3]; dexamethasone 200 μg): 290000 mL⁻¹
- Sum (of histology scores) ([3]; dexamethasone 200 μg): 5.50
- Edema Score [3, 9]: 1.00
- Fibroblast proliferation score [3, 9]: 0.33
- Leukocyte count in exudate [3, 9]: 2.38e+06 mL⁻¹
- Lymphocyte count in exudate [3, 9]: 1.98e+06 mL⁻¹
- Monocyte count in exudate [3, 9]: 70000 mL⁻¹
- Neutrophil count in exudate [3, 9]: 210000 mL⁻¹
- Sum (of histology scores) [3, 9]: 4.17
- IFN-γ in exudate (ELISA) [3, 5]: 2495 ± 711
- IL-6 in exudate (ELISA) [3, 5]: 8453 ± 9758
- IL-10 in exudate (ELISA) [3, 5]: 52.59 ± 7.22
- TNF-α in exudate (ELISA) [3, 5]: 39.41 ± 17.62
- IFN-γ in exudate (ELISA) [3, 6]: 1690 ± 725
- IL-6 in exudate (ELISA) [3, 6]: 2528 ± 1538
- IL-10 in exudate (ELISA) [3, 6]: 68.18 ± 15.81
- TNF-α in exudate (ELISA) [3, 6]: 90.73 ± 109.02
- Exudate volume [3]: 3.68 ± 0.15 mL
- Pouch Wall Weight [3]: 0.66 ± 0.13 g
- Exudate volume ([3]; listed as MON-O): 3.58 ± 0.15 mL
- Pouch Wall Weight ([3]; listed as MON-O): 0.67 ± 0.10 g
- Exudate volume ([4]; listed as Mon-O): 3.69 ± 0.14 mL
- Pouch Wall Weight ([4]; listed as Mon-O): 0.68 ± 0.08 g
- Exudate volume ([4]; listed as Mon-T): 3.54 ± 0.09 mL
- Pouch Wall Weight ([4]; listed as Mon-T): 0.65 ± 0.06 g
- Activity score [4, 10]: 1.67
- Edema Score [4, 10]: 2.17
- IFN-γ in exudate (ELISA) [4, 10]: 557.95 ± 231.86
- IL-6 in exudate (ELISA) [4, 10]: 500.25 ± 292.84
- Inflammation score [4, 10]: 2.33
- Leukocyte count in exudate [4, 10]: 2.66e+06 mL⁻¹
- Sum (of histology scores) [4, 10]: 6.17
- TNF-α in exudate (ELISA) [4, 10]: 146.3 ± 70.74
- Activity score [4, 11]: 1.00
- IFN-γ in exudate (ELISA) [4, 11]: 568.19 ± 316.70
- IL-6 in exudate (ELISA) [4, 11]: 312.05 ± 189.23
- Inflammation score [4, 11]: 2.00
- Leukocyte count in exudate [4, 11]: 2.19e+06 mL⁻¹
- TNF-α in exudate (ELISA) [4, 11]: 80.37 ± 61.72
